According to ChEMBL document CHEMBL1201862, “PubChem BioAssay data set” (2004):
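Cells were grown in 96-well plates and exposed to each compound for 48 hours at five concentrations; endpoints were interpolated linearly between bracketing concentrations, or set to the highest concentration if not reached. GI50 = concentration required for 50% inhibition of growth.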 Active and inactive are the calls of the source. No stated cut-off is given here; in the data, active = GI50 up to about 1.1 µM and inactive = higher. Where a SMILES comes first, the peptide text is derived from it. [ ]: non-standard residue; d: D form. The star is where a group is joined. Phe(4-NO2) = N[CH](Cc1ccc([N+](=O)[O-])cc1)C(=O)O; Boc = CC(C)(C)OC(=O)*

How the values were obtained:
Assay in all cases: NCI-60 cell line screen, 48 h
[1] = system: OVCAR-4
[2] = system: SF-295
[3] = system: EKVX
[4] = system: U-251
[5] = system: OVCAR-3
[6] = system: SNB-19
[7] = system: HCT-116
[8] = system: RXF 393
[9] = system: DU-145
[10] = system: OVCAR-8
[11] = system: NCI/ADR-RES
[12] = system: NCI-H460
[13] = system: IGROV-1
[14] = system: UACC-62
[15] = system: BT-549
[16] = system: M14
[17] = system: MOLT-4
[18] = system: UO-31
[19] = system: SK-MEL-5
[20] = system: HOP-92

| Compound | GI50 [1] | GI50 [2] | GI50 [3] | GI50 [4] | GI50 [5] | GI50 [6] | GI50 [7] | GI50 [8] | GI50 [9] | GI50 [10] | GI50 [11] | GI50 [12] | GI50 [13] | GI50 [14] | GI50 [15] | GI50 [16] | GI50 [17] | GI50 [18] | GI50 [19] | GI50 [20] |
| --- | --- | --- | --- | --- | --- | --- | --- | --- | --- | --- | --- | --- | --- | --- | --- | --- | --- | --- | --- | --- |
| O=C(C(Cl)Cl)N(O)c1ccccc1OCc1ccccc1 | 26.6 µM (inactive) | 57.7 µM (inactive) | 22 µM (inactive) | 38.5 µM (inactive) | 27.7 µM (inactive) | 57.7 µM (inactive) | 63.8 µM (inactive) | 86.3 µM (inactive) | 17 µM (inactive) | 8.95 µM (inactive) | 22.8 µM (inactive) | > 100 µM (inactive) | 68.2 µM (inactive) | 24.3 µM (inactive) | 0.0395 µM (active) | > 100 µM (inactive) | 41.6 µM (inactive) | 36.9 µM (inactive) | – | – |
| Cc1c(CN2CCOCC2)c(CN2CCOCC2)c(C)n1-c1ccc(Cl)cn1 | > 100 µM (inactive) | > 100 µM (inactive) | > 100 µM (inactive) | > 100 µM (inactive) | > 100 µM (inactive) | > 100 µM (inactive) | > 100 µM (inactive) | > 100 µM (inactive) | > 100 µM (inactive) | > 100 µM (inactive) | > 100 µM (inactive) | > 100 µM (inactive) | > 100 µM (inactive) | > 100 µM (inactive) | > 100 µM (inactive) | > 100 µM (inactive) | > 100 µM (inactive) | > 100 µM (inactive) | > 100 µM (inactive) | – |
| Cn1ncc2ccc3[nH]c4ccccc4c(=O)c3c21 | 23.9 µM (inactive) | 34.8 µM (inactive) | 42 µM (inactive) | 15.7 µM (inactive) | 37.3 µM (inactive) | 38.3 µM (inactive) | 24.9 µM (inactive) | 14.7 µM (inactive) | – | 28.1 µM (inactive) | – | 28.7 µM (inactive) | 39.9 µM (inactive) | 16.9 µM (inactive) | – | 39.2 µM (inactive) | 28.9 µM (inactive) | 15 µM (inactive) | 17.5 µM (inactive) | 37.8 µM (inactive) |
| O=C(O/N=c1/ccc(=O)/c(=N\OC(=O)c2ccccc2)c1=O)c1ccccc1 | > 100 µM (inactive) | > 100 µM (inactive) | > 100 µM (inactive) | > 100 µM (inactive) | > 100 µM (inactive) | 76.2 µM (inactive) | > 100 µM (inactive) | > 100 µM (inactive) | – | > 100 µM (inactive) | > 100 µM (inactive) | > 100 µM (inactive) | 89.3 µM (inactive) | – | – | > 100 µM (inactive) | 40.2 µM (inactive) | > 100 µM (inactive) | > 100 µM (inactive) | > 100 µM (inactive) |
| Nc1ccc(SC23CC4CC(CC(C4)C2)C3)cc1 | – | 92.7 µM (inactive) | > 100 µM (inactive) | 78.3 µM (inactive) | > 100 µM (inactive) | > 100 µM (inactive) | > 100 µM (inactive) | 27.5 µM (inactive) | > 100 µM (inactive) | > 100 µM (inactive) | > 100 µM (inactive) | > 100 µM (inactive) | > 100 µM (inactive) | > 100 µM (inactive) | > 100 µM (inactive) | > 100 µM (inactive) | – | > 100 µM (inactive) | > 100 µM (inactive) | – |
| O=c1c2ccccc2[nH]c2c(Cl)cc(Cl)c(NC3CCCCC3)c12 | 41.2 µM (inactive) | 24.2 µM (inactive) | 23 µM (inactive) | 16.7 µM (inactive) | 14.2 µM (inactive) | 13.2 µM (inactive) | 38.5 µM (inactive) | – | – | 20.7 µM (inactive) | 18.5 µM (inactive) | – | 18.2 µM (inactive) | 16.6 µM (inactive) | 27.5 µM (inactive) | 18.6 µM (inactive) | 23 µM (inactive) | 15.3 µM (inactive) | 36.3 µM (inactive) | – |
| C/C(=N\NC(=O)c1ccc(Cl)cc1)c1nc2cccnc2[nH]1 | 18.2 µM (inactive) | 45.8 µM (inactive) | 43 µM (inactive) | 8.93 µM (inactive) | 22.9 µM (inactive) | 18.9 µM (inactive) | 32.6 µM (inactive) | 18.1 µM (inactive) | 49 µM (inactive) | 15.5 µM (inactive) | 20.5 µM (inactive) | 14.7 µM (inactive) | 15.1 µM (inactive) | 20.7 µM (inactive) | 22.3 µM (inactive) | 36.2 µM (inactive) | 14.3 µM (inactive) | 26.7 µM (inactive) | 15.8 µM (inactive) | – |
| C#CCC(O)c1ccc(OC)c(OCc2ccccc2)c1 (stereo not drawn) | > 100 µM (inactive) | 98.4 µM (inactive) | 56.2 µM (inactive) | > 100 µM (inactive) | > 100 µM (inactive) | > 100 µM (inactive) | > 100 µM (inactive) | > 100 µM (inactive) | > 100 µM (inactive) | > 100 µM (inactive) | 82.2 µM (inactive) | > 100 µM (inactive) | > 100 µM (inactive) | > 100 µM (inactive) | – | > 100 µM (inactive) | 23.6 µM (inactive) | > 100 µM (inactive) | 46.9 µM (inactive) | > 100 µM (inactive) |
| CCCCNC(=S)Nc1nc(C(=O)NNC(=S)NCc2ccccc2)cs1 | 35.3 µM (inactive) | 37.5 µM (inactive) | 42.8 µM (inactive) | 34.5 µM (inactive) | 52.4 µM (inactive) | – | 32.9 µM (inactive) | – | 39.6 µM (inactive) | 24.1 µM (inactive) | 30.1 µM (inactive) | – | 30.1 µM (inactive) | 19 µM (inactive) | 67 µM (inactive) | 38.6 µM (inactive) | 19.1 µM (inactive) | 23.9 µM (inactive) | 16.3 µM (inactive) | – |
| CSC1=Nc2ccccc2-c2nc(-c3ccccc3)cc(-c3ccccc3)c2C1 | 8.93 µM (inactive) | 13.6 µM (inactive) | 23.1 µM (inactive) | 7.03 µM (inactive) | – | 6.4 µM (inactive) | 5.16 µM (inactive) | 6.5 µM (inactive) | 60.4 µM (inactive) | 9.98 µM (inactive) | 19.7 µM (inactive) | 5.12 µM (inactive) | 10 µM (inactive) | 9.77 µM (inactive) | 39.7 µM (inactive) | 13.9 µM (inactive) | > 100 µM (inactive) | 23.5 µM (inactive) | 16.6 µM (inactive) | – |
| Cc1c(Cl)cccc1N1C(=O)C(Cl)=C(Cl)C1=O | > 100 µM (inactive) | > 100 µM (inactive) | > 100 µM (inactive) | > 100 µM (inactive) | > 100 µM (inactive) | > 100 µM (inactive) | > 100 µM (inactive) | 44.4 µM (inactive) | – | > 100 µM (inactive) | – | > 100 µM (inactive) | > 100 µM (inactive) | > 100 µM (inactive) | – | > 100 µM (inactive) | 17.1 µM (inactive) | > 100 µM (inactive) | > 100 µM (inactive) | > 73.8 µM (inactive) |
| Cn1c2ccccc2c(=O)c2cccc(C(=O)NC(CS)C(=O)O)c21 (stereo not drawn) | > 100 µM (inactive) | > 100 µM (inactive) | > 100 µM (inactive) | > 100 µM (inactive) | > 100 µM (inactive) | > 100 µM (inactive) | 68.9 µM (inactive) | – | > 100 µM (inactive) | > 100 µM (inactive) | 23.6 µM (inactive) | > 100 µM (inactive) | > 100 µM (inactive) | > 100 µM (inactive) | > 100 µM (inactive) | > 100 µM (inactive) | 63.4 µM (inactive) | > 100 µM (inactive) | > 100 µM (inactive) | – |
| CCN1CCCC(C#N)(c2ccccc2)CC1 (stereo not drawn) | > 100 µM (inactive) | > 100 µM (inactive) | > 100 µM (inactive) | > 100 µM (inactive) | – | > 100 µM (inactive) | > 100 µM (inactive) | > 100 µM (inactive) | > 100 µM (inactive) | > 100 µM (inactive) | > 100 µM (inactive) | > 100 µM (inactive) | > 100 µM (inactive) | – | – | > 100 µM (inactive) | > 100 µM (inactive) | > 100 µM (inactive) | > 100 µM (inactive) | > 100 µM (inactive) |
| COc1cccc(/C(CC(O)(C(F)(F)F)C(F)(F)F)=N\N(C)C)c1 | > 100 µM (inactive) | > 100 µM (inactive) | > 100 µM (inactive) | > 100 µM (inactive) | > 100 µM (inactive) | > 100 µM (inactive) | > 100 µM (inactive) | > 100 µM (inactive) | > 100 µM (inactive) | – | > 100 µM (inactive) | > 100 µM (inactive) | > 100 µM (inactive) | > 100 µM (inactive) | – | > 100 µM (inactive) | > 100 µM (inactive) | > 100 µM (inactive) | > 100 µM (inactive) | > 100 µM (inactive) |
| CCOC(=O)CCC(NC(=O)C(Cc1ccc([N+](=O)[O-])cc1)NC(=O)OC(C)(C)C)C(=O)NC(CCC(=O)OCC)C(=O)OCC (stereo not drawn) (Boc-[Phe(4-NO2)]-Glu(OEt)-Glu(OEt)-OEt; configuration not given here) | – | – | > 10 µM (inactive) | 19.8 µM (inactive) | – | 95.9 µM (inactive) | 18.3 µM (inactive) | 16.6 µM (inactive) | – | 18.5 µM (inactive) | – | 23.4 µM (inactive) | 20.3 µM (inactive) | 16.8 µM (inactive) | 22.2 µM (inactive) | 16.8 µM (inactive) | 2.73 µM (inactive) | > 100 µM (inactive) | 17.4 µM (inactive) | 15.8 µM (inactive) |
| C[C@@H]1C[C@@H]([C@H](O)CC2CC(=O)NC(=O)C2)C(=O)[C@@H](C)C1 [CYCLOHEXIMIDE] | 0.0366 µM (active) | 0.142 µM (active) | 0.0933 µM (active) | 0.0603 µM (active) | 0.131 µM (active) | 0.0984 µM (active) | 0.0738 µM (active) | 0.0315 µM (active) | – | 0.044 µM (active) | – | 0.122 µM (active) | 0.0532 µM (active) | 0.118 µM (active) | – | 0.0532 µM (active) | < 0.0176 µM (active) | 0.0287 µM (active) | 0.0248 µM (active) | 0.0366 µM (active) |
